Measured values: patent publication US11058680B2, “Combinations of opioid/TLR4 antagonists and acetaminophen for use in the treatment of emotional pain and insomnia” (Allodynic Threapeutics, LLC, priority 2016, dated 2021)
“And” between values parts separate entries of the source, which are not always exact repeats. Equal entries are not always repeated.

Tested on: migraine attacks
Assay: Naltrexone/acetaminophen open-label pilot study, acute treatment of migraine: headache pain (4-point scale; relief score ≤1, pain-free score = 0), associated symptoms, additional meds
Format: in vivo, human
Procedure: Sixteen unique patients were enrolled in an open phase pilot study for the acute treatment of migraine attacks, insomnia, and emotional pain. Of the sixteen patients, eleven were evaluated for one migraine attack, one for two attacks, two for four attacks, one for six attacks, and one for fourteen attacks. A total of forty-one […] treatments were evaluated. Patients received a single dose of one of the following treatment options:
The majority of the patients remained in the clinic for observation for 2 hours after dosing. They completed headache diary assessments immediately before and after dosing at time points: 7, 15, and 30 minutes; and 1, 1.5, 2, 3, 6, 12, 24, and 48 hours. Headache pain was assessed on a 4-point scale (0=none; 1=mild; 2=moderate; 3=severe). The assessment of photophobia, phonophobia, nausea, and neck/shoulder pain was assessed as present or absent. The assessment of emotional pain was recorded on a 4-point scale (0=none, 1=mild, 2=moderate, 3=severe). The assessment of difficulty sleeping or falling asleep (insomnia) was assessed on a 4-point scale (0=none, 1=mild, 2=moderate, 3=severe) at baseline, for the night before treatment and for the following nights at 24, and 48 hours. Patients recorded side effects severity at each time point. Patients recorded the time of the first rescue medication dose and all additional headache medications used within 48 hours. Patients were required to stay awake to record their assessments in the first 2 hours, sleeping was permitted thereafter. While asleep, assessments were completed according to patients' best estimation. For data analysis, it was assumed that a migraine attack is a unique patient. Patients were asked to specify (yes or no answer) to whether they experienced emotional pain symptoms such as: hurt feelings, sadness, fear, or anger. Patients who replied positively to having emotional pain were asked to specify the cause into one of the following options: relationship, work/school, money/debt, health, or loss/grief.

[1] = 12 h, NTX/APAP 2.25 mg/325 mg, NTX 2.25 mg
[2] = 12 h, NTX/APAP 3.25 mg/325 mg, NTX 3.25 mg
[3] = 12 h, NTX/APAP 5 mg/325 mg, NTX 5 mg
[4] = 12 h, NTX/APAP […]325 mg, NTX 1.5 mg
[5] = 12 h, naltrexone/acetaminophen 2.25 mg/325 mg (N=21), naltrexone 2.25 mg (N=9)
[6] = 24 h, NTX/APAP 2.25 mg/325 mg, NTX 2.25 mg
[7] = 24 h, NTX/APAP 3.25 mg/325 mg, NTX 3.25 mg
[8] = 24 h, NTX/APAP 5 mg/325 mg, NTX 5 mg
[9] = 24 h, NTX/APAP […]325 mg, NTX 1.5 mg
[10] = 24 h, naltrexone/acetaminophen 2.25 mg/325 mg (N=21), naltrexone 2.25 mg (N=9)
[11] = 48 h, NTX/APAP 2.25 mg/325 mg, NTX 2.25 mg
[12] = 48 h, NTX/APAP 3.25 mg/325 mg, NTX 3.25 mg
[13] = 48 h, NTX/APAP 5 mg/325 mg, NTX 5 mg
[14] = 48 h, NTX/APAP […]325 mg, NTX 1.5 mg
[15] = 48 h, naltrexone/acetaminophen 2.25 mg/325 mg (N=21), naltrexone 2.25 mg (N=9)

Structure (SMILES): O=C1CC[C@@]2(O)[C@H]3Cc4ccc(O)c5c4[C@@]2(CCN3CC2CC2)[C@H]1O5 [naltrexone]
- Nausea-free [1]: 9 (100) n (%)
- Neck/shoulder pain-free [1]: 9 (100) n (%)
- Phonophobia-free [1]: 9 (100) n (%)
- Photophobia-free [1]: 8 (88) n (%)
- Additional meds taken [2]: 0
- Headache pain-free [2]: 3 (100) n (%)
- Headache pain-relief [2]: 3 (100) n (%)
- Most bothersome symptom-free [2]: 3 (100) n (%)
- Nausea-free [2]: 3 (100) n (%)
- Neck/shoulder pain-free [2]: 3 (100) n (%)
- Phonophobia-free [2]: 3 (100) n (%)
- Photophobia-free [2]: 3 (100) n (%)
- Additional meds taken [3]: 0
- Headache pain-free [3]: 1 (100) n (%)
- Headache pain-relief [3]: 1 (100) n (%)
- Most bothersome symptom-free [3]: 1 (100) n (%)
- Nausea-free [3]: 1 (100) n (%)
- Neck/shoulder pain-free [3]: 1 (100) n (%)
- Phonophobia-free [3]: 1 (100) n (%)
- Photophobia-free [3]: 1 (100) n (%)
- Additional meds taken [4]: 0
- Headache pain-free [4]: 3 (100) n (%)
- Headache pain-relief [4]: 3 (100) n (%)
- Most bothersome symptom-free [4]: 3 (100) n (%)
- Nausea-free [4]: 3 (100) n (%)
- Neck/shoulder pain-free [4]: 3 (100) n (%)
- Phonophobia-free [4]: 3 (100) n (%)
- Photophobia-free [4]: 3 (100) n (%)
- Additional meds taken (12 h, combined doses): 0
- Headache pain-free (12 h, combined doses): 14 (88) n (%)
- Headache pain-relief (12 h, combined doses): 16 (100) n (%)
- Most bothersome symptom-free (12 h, combined doses): 16 (100) n (%)
- Nausea-free (12 h, combined doses): 16 (100) n (%)
- Neck/shoulder pain-free (12 h, combined doses): 16 (100) n (%)
- Phonophobia-free (12 h, combined doses): 16 (100) n (%)
- Photophobia-free (12 h, combined doses): 15 (94) n (%)
- Headache pain-free (12 h, naltrexone 1.5 mg (N=3)): 100%
- Headache pain-free [5]: 77% and 100%
- Headache pain-relief [5]: 100%
- Most bothersome symptom-free [5]: 100%
- Headache pain-free (12 h, naltrexone/acetaminophen 3.25 mg/325 mg (N=3), naltrexone 3.25 mg (N=3)): 100%
- Additional meds taken [6]: 0
- Headache pain-free [6]: 8 (88) n (%)
- Headache pain-relief [6]: 9 (100) n (%)
- Most bothersome symptom-free [6]: 9 (100) n (%)
- Nausea-free [6]: 9 (100) n (%)
- Neck/shoulder pain-free [6]: 9 (100) n (%)
- Phonophobia-free [6]: 9 (100) n (%)
- Photophobia-free [6]: 9 (100) n (%)
- Additional meds taken [7]: 0
- Headache pain-free [7]: 3 (100) n (%)
- Headache pain-relief [7]: 3 (100) n (%)
- Most bothersome symptom-free [7]: 3 (100) n (%)
- Nausea-free [7]: 3 (100) n (%)
- Neck/shoulder pain-free [7]: 3 (100) n (%)
- Phonophobia-free [7]: 3 (100) n (%)
- Photophobia-free [7]: 3 (100) n (%)
- Additional meds taken [8]: 0
- Headache pain-free [8]: 1 (100) n (%)
- Headache pain-relief [8]: 1 (100) n (%)
- Most bothersome symptom-free [8]: 1 (100) n (%)
- Nausea-free [8]: 1 (100) n (%)
- Neck/shoulder pain-free [8]: 1 (100) n (%)
- Phonophobia-free [8]: 1 (100) n (%)
- Photophobia-free [8]: 1 (100) n (%)
- Additional meds taken [9]: 0
- Headache pain-free [9]: 3 (100) n (%)
- Headache pain-relief [9]: 3 (100) n (%)
- Most bothersome symptom-free [9]: 3 (100) n (%)
- Nausea-free [9]: 3 (100) n (%)
- Neck/shoulder pain-free [9]: 3 (100) n (%)
- Phonophobia-free [9]: 3 (100) n (%)
- Photophobia-free [9]: 3 (100) n (%)
- Additional meds taken (24 h, combined doses): 0
- Headache pain-free (24 h, combined doses): 15 (94) n (%)
- Headache pain-relief (24 h, combined doses): 16 (100) n (%)
- Most bothersome symptom-free (24 h, combined doses): 16 (100) n (%)
- Nausea-free (24 h, combined doses): 16 (100) n (%)
- Neck/shoulder pain-free (24 h, combined doses): 16 (100) n (%)
- Phonophobia-free (24 h, combined doses): 16 (100) n (%)
- Photophobia-free (24 h, combined doses): 16 (100) n (%)
- Headache pain-free (24 h, naltrexone 1.5 mg (N=3)): 100%
- Headache pain-free [10]: 88% and 100%
- Headache pain-relief [10]: 100%
- Most bothersome symptom-free [10]: 100%
- Headache pain-free (24 h, naltrexone/acetaminophen 3.25 mg/325 mg (N=3), naltrexone 3.25 mg (N=3)): 100%
- Additional meds taken [11]: 0 (0)
- Headache pain-free [11]: 9 (100) n (%)
- Headache pain-relief [11]: 9 (100) n (%)
- Most bothersome symptom-free [11]: 9 (100) n (%)
- Nausea-free [11]: 9 (100) n (%)
- Neck/shoulder pain-free [11]: 9 (100) n (%)
- Phonophobia-free [11]: 9 (100) n (%)
- Photophobia-free [11]: 9 (100) n (%)
- Additional meds taken [12]: 0
- Headache pain-free [12]: 3 (100) n (%)
- Headache pain-relief [12]: 3 (100) n (%)
- Most bothersome symptom-free [12]: 3 (100) n (%)
- Nausea-free [12]: 3 (100) n (%)
- Neck/shoulder pain-free [12]: 3 (100) n (%)
- Phonophobia-free [12]: 3 (100) n (%)
- Photophobia-free [12]: 3 (100) n (%)
- Additional meds taken [13]: 1
- Headache pain-free [13]: 1 (100) n (%)
- Headache pain-relief [13]: 1 (100) n (%)
- Most bothersome symptom-free [13]: 1 (100) n (%)
- Nausea-free [13]: 1 (100) n (%)
- Neck/shoulder pain-free [13]: 1 (100) n (%)
- Phonophobia-free [13]: 1 (100) n (%)
- Photophobia-free [13]: 1 (100) n (%)
- Additional meds taken [14]: 0
- Headache pain-free [14]: 2 (66) n (%)
- Headache pain-relief [14]: 2 (66) n (%)
- Most bothersome symptom-free [14]: 2 (66) n (%)
- Nausea-free [14]: 2 (66) n (%)
- Neck/shoulder pain-free [14]: 3 (100) n (%)
- Phonophobia-free [14]: 3 (100) n (%)
- Photophobia-free [14]: 2 (66) n (%)
- Additional meds taken (48 h, combined doses): 1
- Headache pain-free (48 h, combined doses): 15 (94) n (%)
- Headache pain-relief (48 h, combined doses): 15 (94) n (%)
- Most bothersome symptom-free (48 h, combined doses): 15 (94) n (%)
- Nausea-free (48 h, combined doses): 15 (94) n (%)
- Neck/shoulder pain-free (48 h, combined doses): 16 (100) n (%)
- Phonophobia-free (48 h, combined doses): 16 (100) n (%)
- Photophobia-free (48 h, combined doses): 15 (94) n (%)
- Headache pain-free (48 h, naltrexone 1.5 mg (N=3)): 100%
- Headache pain-free [15]: 100%
- Headache pain-relief [15]: 100%
- Most bothersome symptom-free [15]: 100%
- Headache pain-free (48 h, naltrexone/acetaminophen 3.25 mg/325 mg (N=3), naltrexone 3.25 mg (N=3)): 100%
- Headache pain-free (from 90 minutes to 48 hours, naltrexone alone, all dosages (1.5, 2.25, 3.25, 5 mg)): 100%
